We go through three substances from PMC3579193, “Elucidation of relaxin-3 binding interactions in the extracellular loops of RXFP3” (Frontiers in Endocrinology, 2013).

One experiment deals with RXFP4 over RXFP3. To be noted: ref Zhu et al., 2008; cited from earlier work. The text has this: (§1) Although residues in the peptides have been identified as critical for activity, the specific residues in the receptors that are interacting with these are unknown. […] In addition they determined that sites in transmembrane (TM) 2, 3, and 5 are involved in receptor activation by INSL5 ([Zhu et al., 2008]). None of the receptor chimeras resulted ...

The target of another experiment is HA-RXFP3 E245A (human) (UniProt Q9NSD7). Description: europium-labelled ligand binding on cells; specific binding of 5 nM Eu-H3/I5 to transfected HEK-293T cells in 96 well optiplates; non-specific binding with 1 uM unlabeled H3 relaxin; expressed as ratio of specific binding to cell surface expression, normalized to HA-RXFP3.
The target of another experiment is HA-RXFP3 E77A (human) (UniProt Q9NSD7). The description is as above.
Another experiment deals with rats. As to conditions: central administration, ref McGowan et al., 2005, 2006, Ganella et al., 2012b; cited from earlier work. The text has this:
Relaxin-3 is involved in a wide range of behaviors, including feeding, stress responses, arousal, and cognitive processes ([Smith et al., 2011]). […] Relaxin-3 neuronal activity and production of relaxi ...

The test system of experiment [1] is chimeric RXFP3/4 receptors. As to conditions: ref Zhu et al., 2008; cited from earlier work.
Excerpt: as §1

In another experiment the test system is RXFP1. To be noted: ref Sudo et al., 2003; cited from earlier work. The text has this: Relaxin-3 is a member of the relaxin peptide family. Peptides from this family activate relaxin family peptide (RXFP) receptors, which are Type I or Class A G protein-coupled receptors (GPCRs). […] The rela ...
The next experiment concerns RXFP4. As to conditions: ref Liu et al., 2003a; cited from earlier work. The text has this: Relaxin-3 is a member of the relaxin peptide family. Peptides from this family activate relaxin family peptide (RXFP) receptors, which are Type I or Class A G protein-coupled receptors (GPCRs). […] The rela ... || Based on the hypothesis that coevolution of relaxin-3 and RXFP3 occurred in vertebrates and that residues important for relaxin-3 binding and activation should therefore be conserved we performed multiple sequence alignments of all vertebrate RXFP3 sequences. […] Figure 1A highlights sequence alignments of representative mammalian species (human, chimpanzee, rat, mouse, platypus) and representative lower vertebrate species (Frog and Zebrafish) from this analysis compa ... || Based on the hypothesis that coevolution of relaxin-3 and RXFP3 occurred in vertebrates, and in the knowledge that the key relaxin-3 B-chain residues are conserved across all vertebrate species ([Wilkinson et al., 2005b]), we performed multiple sequence alignments of all vertebrate RXFP3 sequences to identify highly conserved residues in the ELs and NT domain that may be involved in relaxin-3 binding. […] We have focused on glutamic (E) and aspartic acid (D) residues ...

Ends that are not written are not given here.

In the case of “INSL5: related insulin-like peptide-5, ligand of RXFP4 (Insulin-like peptide INSL5 B … KESVRLCGLEYIRTVIYICASSRW; Insulin-like peptide INSL5 A … QDLQTLCCTDGCSMTDLSALC; ends and bridges not checked; cysteine pairing not given here; UniProt Q9Y5Q6 23-46; Q9Y5Q6 115-135, looked up)”, in the experiment on RXFP4 over RXFP3, the “selectivity” value is given as “selectivity of INSL5 for RXFP4 over RXFP3”.

“mono-Eu-labeled relaxin-3 agonist H3 relaxin B-chain, INSL5 A chain (H3/I5) (ligand)”: the decrease in specific binding against HA-RXFP3 with HA-RXFP3 E245A (human) was found to be 50%. Besides, the loss of specific binding against HA-RXFP3 with HA-RXFP3 E77A (human) amounted to 50%.

As for “relaxin-3: highly conserved neuropeptide, member of the relaxin peptide family; endogenous ligand of RXFP3”, the “effect on feeding” value in the experiment with rats is “increase feeding in rats”. The “effect of receptor chimeras on binding or activity” value in experiment [1] is on record as “None of the receptor chimeras resulted in appreciable changes in relaxin-3 binding or activity”. Also, in the experiment on RXFP1, the “binding to and activation of RXFP1” value is “able to bind to and activate both RXFP4 ([Liu et al., 2003a]) and RXFP1”. Further, the “binding to and activation of RXFP4” value with RXFP4 is “able to bind to and activate both RXFP4”.
